Laboratory results from PubChem BioAssay (NCI).
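1) Cells in 96-well plates. 2) Compound, 48 h, 5 concentrations. 3) Linear interpolation between surrounding doses. 4) Unreached endpoint = highest concentration. At the GI50, growth is halved. At the TGI there is no net growth.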

Legend:
Assay in all cases: DTP human tumour cell line panel, 48 h
[1] = test system: KM12 colon
[2] = test system: SF-268 CNS
[3] = test system: MCF7 breast
[4] = test system: CCRF-CEM leukemia
[5] = test system: NCI-H522 lung
[6] = test system: UACC-257 melanoma
[7] = test system: OVCAR-8 ovarian
[8] = test system: HOP-62 NSCLC
[9] = test system: NCI-H23 lung
[10] = test system: HT29 colon
[11] = test system: RXF 393 renal
[12] = test system: OVCAR-5 ovarian
[13] = test system: MOLT-4 leukemia
[14] = test system: SR leukemia
[15] = test system: NCI/ADR-RES ovarian
[16] = test system: HL-60(TB) leukemia
[17] = test system: TK-10 renal
[18] = test system: SF-295 CNS
[19] = test system: U251 CNS
[20] = test system: SF-539 CNS
[21] = test system: UACC-62 melanoma
[22] = test system: OVCAR-3 ovarian
[23] = test system: HS 578T breast
[24] = test system: SN12C renal
[25] = test system: K-562 leukemia
[26] = test system: MDA-MB-435
[27] = test system: SK-MEL-28 melanoma
[28] = test system: BT-549 breast
[29] = test system: M14 melanoma
[30] = test system: SNB-75 CNS
[31] = test system: MALME-3M melanoma
[32] = test system: LOX IMVI melanoma
[33] = test system: SK-OV-3 ovarian
[34] = test system: DU-145 prostate
[35] = test system: UO-31 renal
[36] = test system: HOP-92 NSCLC
[37] = test system: EKVX NSCLC
[38] = test system: HCT-116 colon
[39] = test system: CAKI-1 renal
[40] = test system: RPMI-8226 leukemia
[41] = test system: A549 NSCLC
[42] = test system: SK-MEL-5 melanoma
[43] = test system: SK-MEL-2 melanoma
[44] = test system: ACHN renal
[45] = test system: 786-0 renal
[46] = test system: IGROV1 ovarian
[47] = test system: COLO 205 colon
[48] = test system: HCC-2998 colon
[49] = test system: A498 renal
[50] = test system: SNB-19 CNS
[51] = test system: NCI-H460 lung
[52] = test system: T-47D breast
[53] = test system: HCT-15 colon
[54] = test system: OVCAR-4 ovarian
[55] = test system: MDA-MB-231 breast
[56] = test system: NCI-H226 lung
[57] = test system: SW-620 colon
[58] = test system: PC-3 prostate

NS(=O)(=O)c1ccc(N=Nc2c(O)[nH]c3ccc(C(=O)NCCc4cnc[nH]4)cc23)cc1
GI50 [1]: > 25 µM
TGI [1]: > 25 µM
GI50 [2]: > 25 µM
TGI [2]: > 25 µM
GI50 [3]: > 25 µM
TGI [3]: > 25 µM
GI50 [4]: > 25 µM
TGI [4]: > 25 µM
GI50 [5]: > 25 µM
TGI [5]: > 25 µM
GI50 [6]: > 25 µM
TGI [6]: > 25 µM
GI50 [7]: > 25 µM
TGI [7]: > 25 µM
GI50 [8]: > 25 µM
TGI [8]: > 25 µM
GI50 [9]: > 25 µM
TGI [9]: > 25 µM
GI50 [10]: > 25 µM
TGI [10]: > 25 µM
GI50 [11]: > 25 µM
TGI [11]: > 25 µM
GI50 [12]: > 25 µM
TGI [12]: > 25 µM
GI50 [13]: > 25 µM
TGI [13]: > 25 µM
GI50 [14]: > 25 µM
TGI [14]: > 25 µM
GI50 [15]: > 25 µM
TGI [15]: > 25 µM
GI50 [16]: > 25 µM
TGI [16]: > 25 µM
GI50 [17]: > 25 µM
TGI [17]: > 25 µM
GI50 [18]: > 25 µM
TGI [18]: > 25 µM
GI50 [19]: > 25 µM
TGI [19]: > 25 µM
GI50 [20]: > 25 µM
TGI [20]: > 25 µM
GI50 [21]: > 25 µM
TGI [21]: > 25 µM
GI50 [22]: > 25 µM
TGI [22]: > 25 µM
GI50 [23]: > 25 µM
TGI [23]: > 25 µM
GI50 [24]: > 25 µM
TGI [24]: > 25 µM
GI50 [25]: > 25 µM
TGI [25]: > 25 µM
GI50 [26]: > 25 µM
TGI [26]: > 25 µM
GI50 [27]: > 25 µM
TGI [27]: > 25 µM
GI50 [28]: > 25 µM
TGI [28]: > 25 µM
GI50 [29]: > 25 µM
TGI [29]: > 25 µM
GI50 [30]: > 25 µM
TGI [30]: > 25 µM
GI50 [31]: > 25 µM
TGI [31]: > 25 µM
GI50 [32]: > 25 µM
TGI [32]: > 25 µM
GI50 [33]: > 25 µM
TGI [33]: > 25 µM
GI50 [34]: > 25 µM
TGI [34]: > 25 µM
GI50 [35]: > 25 µM
TGI [35]: > 25 µM
GI50 [36]: > 25 µM
TGI [36]: > 25 µM
GI50 [37]: > 25 µM
TGI [37]: > 25 µM
GI50 [38]: > 25 µM
TGI [38]: > 25 µM
GI50 [39]: > 25 µM
TGI [39]: > 25 µM
GI50 [40]: > 25 µM
TGI [40]: > 25 µM
GI50 [41]: > 25 µM
TGI [41]: > 25 µM
GI50 [42]: > 25 µM
TGI [42]: > 25 µM
GI50 [43]: > 25 µM
TGI [43]: > 25 µM
GI50 [44]: > 25 µM
TGI [44]: > 25 µM
GI50 [45]: > 25 µM
TGI [45]: > 25 µM
GI50 [46]: > 25 µM
TGI [46]: > 25 µM
GI50 [47]: > 25 µM
TGI [47]: > 25 µM
GI50 [48]: > 25 µM
TGI [48]: > 25 µM
GI50 [49]: > 25 µM
TGI [49]: > 25 µM
GI50 [50]: > 25 µM
TGI [50]: > 25 µM
GI50 [51]: > 25 µM
TGI [51]: > 25 µM
GI50 [52]: > 25 µM
TGI [52]: > 25 µM
GI50 [53]: > 25 µM
TGI [53]: > 25 µM
GI50 [54]: > 25 µM
TGI [54]: > 25 µM
GI50 [55]: > 25 µM
TGI [55]: > 25 µM
GI50 [56]: > 25 µM
TGI [56]: > 25 µM
GI50 [57]: > 25 µM
TGI [57]: > 25 µM
GI50 [58]: > 25 µM
TGI [58]: > 25 µM
